“Also recorded” adds a separate entry of the source. Like-named read-outs stand apart in the source and are kept apart here.
Legend:
[1] = tested on: A549 cell line; assay: Cytotoxicity by MTT assay, A549 cell line; type: cell-based, Human; conditions: for IC50: A549 cell line, purified compounds, incubation of 2 days, read-out: IC 50 of the Compounds Purified from Independent Synthesis, A549
Description: (§1) The cell lines were used in the present invention, including A549 (Human type II epithelial cell line, from American Type Culture Collection, Manassas, Va.) and MCF7 (solid human estrogen receptor positive breast carcinoma). A 10 μl coupling product solution was added into the well of microtiterplate planted with 100 μl of above mentioned cell lines in a concentration of 30000 cells/mL. Furthermore, the coupling product in each well was diluted before transferring to the plate. Thus the appropriate working concentration could be determined since the cellular survival ratio of most compounds acting as negative control is greater than 80%. The method was illustrated in FIG. 3. After an incubation of 2 days, the supernatants were washed, followed by adding MTT reagents. After 4 hours, absorbance at 580 nm was recorded according to the usual protocol.

[2] = tested on: MCF7 cell line; assay: Cytotoxicity by MTT assay, MCF7 cell line; type: cell-based, human; conditions: for IC50: MCF7 cell line, purified compounds, incubation of 2 days, read-out: IC 50 of the Compounds Purified from Independent Synthesis, MCF7; for biological activity (cytotoxicity) in crude library assay: crude coupling products, MCF7 (FIGS. 4a-c; cell line not always given)
Description: as §1

Row | Compound | IC50 ([1]; Homo sapiens, 48 h) | IC50 ([2]; Homo sapiens, 48 h) | IC50 [1] | IC50 [2] | biological activity (cytotoxicity) in crude library assay [2] | biological activity (cytotoxicity) in crude library assay ([1]; crude coupling products, A549)
1 | O=C(O)c1cccc(C(=O)c2ccc(F)cc2)c1 [D16, 3-(4-fluorobenzoyl)benzoic acid, reference compound] | > 100 µM | > 100 µM | – | – | – | –
2 | C=C(CC)C(=O)c1ccc(OCC(=O)NCCCC)c(Cl)c1Cl [C15] | – | – | 18 µM | 8 ± 5 µM | exhibited biological activity | –
3 | O=C(NCC1OC(n2ccc(=O)[nH]c2=O)CC1O)c1cccc(C(=O)c2ccc(F)cc2)c1 (centres unmarked) [A16] | – | – | > 100 µM | > 100 µM | – | –
4 | C=C(CC)C(=O)c1ccc(OCC(=O)NC[C@H]2O[C@@H](n3ccc(=O)[nH]c3=O)C[C@@H]2O)c(Cl)c1Cl [A15] | – | – | > 100 µM | > 100 µM | exhibited biological activity | –
5 | O=C(NCC1OC(n2ccc(=O)[nH]c2=O)C(O)C1O)c1ccccc1 (centres unmarked) [U1] | – | – | > 100 µM | > 100 µM | – | –
6 | O=C(CCC(=O)c1ccc(-c2ccccc2)cc1)NCC1OC(n2ccc(=O)[nH]c2=O)C(O)C1O (centres unmarked) [U18] | – | – | > 100 µM | > 100 µM | – | –
7 | N.N.[Cl][Pt][Cl] [Cisplatin, reference compound] | – | – | 8 ± 3 µM | 25 ± 6 µM | – | –
8 | O=C(O)CCC(=O)c1ccc(-c2ccccc2)cc1 [D18, 4-([1,1′-biphenyl]-4-yl)-4-oxobutanoic acid, reference compound] | > 100 µM | > 100 µM | – | – | – | –
9 | CCCCNC(=O)CCC(=O)c1ccc(-c2ccccc2)cc1 [C18] | – | – | 100 µM | 87 µM | exhibited biological activity; also recorded: unexpected bioactivity | unexpected bioactivity
10 | CCCCNC(=O)c1cccc(C(=O)c2ccc(F)cc2)c1 [C16] | – | – | > 100 µM | > 100 µM | – | –
11 | C=C(CC)C(=O)c1ccc(OCC(=O)O)c(Cl)c1Cl [D15, 2-(2,3-dichloro-4-(2-methylenebutanoyl)phenoxy)acetic acid, reference compound] | 84 ± 16 µM | 26 ± 2 µM | – | – | – | –
12 | CCCCCCCCCCCC(=O)NC[C@H]1O[C@@H](n2ccc(=O)[nH]c2=O)[C@H](O)[C@@H]1O [U27] | – | – | > 100 µM | ~100 µM | exhibited biological activity; also recorded: subtle cytotoxicity | –
